The target in the experiment is T1, piperonal-converting enzyme (PceSML), FAD site on PceM (Burkholderia sp. CT39-3, UniProt A0A1L7N251).
T1 construct: same recombinant complex as P1 (N-terminal His tag on PceS, host Burkholderia sp. CT39-3); with Piperonal-converting enzyme large subunit (PceL); Piperonal-converting enzyme small subunit (PceS)
T1 sequence (A0A1L7N251 1-334): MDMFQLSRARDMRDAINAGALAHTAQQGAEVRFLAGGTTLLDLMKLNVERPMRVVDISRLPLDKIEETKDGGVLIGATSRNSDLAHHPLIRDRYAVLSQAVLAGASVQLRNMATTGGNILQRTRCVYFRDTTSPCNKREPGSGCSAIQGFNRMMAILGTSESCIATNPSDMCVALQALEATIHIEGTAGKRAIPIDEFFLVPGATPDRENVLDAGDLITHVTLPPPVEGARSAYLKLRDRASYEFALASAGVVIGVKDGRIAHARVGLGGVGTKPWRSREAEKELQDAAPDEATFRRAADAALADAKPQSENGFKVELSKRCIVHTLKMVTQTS
T1 sequence (A0A1L7N257 1-740 partner): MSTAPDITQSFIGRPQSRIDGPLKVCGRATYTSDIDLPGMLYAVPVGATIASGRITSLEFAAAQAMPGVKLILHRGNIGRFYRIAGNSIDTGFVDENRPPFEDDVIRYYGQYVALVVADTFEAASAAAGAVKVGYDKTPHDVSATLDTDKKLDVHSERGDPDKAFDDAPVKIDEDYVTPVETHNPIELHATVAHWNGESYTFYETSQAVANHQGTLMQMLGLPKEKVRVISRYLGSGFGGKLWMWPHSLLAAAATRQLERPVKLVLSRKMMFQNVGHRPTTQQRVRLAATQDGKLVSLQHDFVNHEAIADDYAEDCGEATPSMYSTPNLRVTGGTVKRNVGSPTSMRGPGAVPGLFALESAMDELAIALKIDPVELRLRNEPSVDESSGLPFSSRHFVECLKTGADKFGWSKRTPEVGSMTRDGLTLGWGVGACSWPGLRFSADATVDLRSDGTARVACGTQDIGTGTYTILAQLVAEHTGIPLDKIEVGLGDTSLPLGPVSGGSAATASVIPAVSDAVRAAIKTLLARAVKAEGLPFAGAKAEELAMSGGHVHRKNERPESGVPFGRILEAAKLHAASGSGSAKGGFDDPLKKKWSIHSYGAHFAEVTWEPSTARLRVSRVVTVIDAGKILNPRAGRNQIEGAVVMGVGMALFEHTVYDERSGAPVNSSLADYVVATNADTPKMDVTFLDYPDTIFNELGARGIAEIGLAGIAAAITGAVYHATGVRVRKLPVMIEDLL
T1 sequence (A0A1L7N258 1-185 partner): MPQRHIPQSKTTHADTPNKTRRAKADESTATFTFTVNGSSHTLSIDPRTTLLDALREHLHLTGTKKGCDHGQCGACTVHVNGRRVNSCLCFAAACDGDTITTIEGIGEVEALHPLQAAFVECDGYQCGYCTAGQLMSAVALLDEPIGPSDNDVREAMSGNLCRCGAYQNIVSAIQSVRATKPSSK
The experiment can be described thus: HPLC of flavin released from purified enzyme by HClO4. Type of experiment: binding. To be noted: as-purified cofactor.

This is an account of results in PMC5131310, “Discovery of piperonal-converting oxidase involved in the metabolism of a botanical aromatic aldehyde” (Scientific Reports, 2016).

On to `Cc1cc2nc3c(=O)[nH]c(=O)nc-3n(C[C@H](O)[C@H](O)[C@H](O)COP(=O)(O)OP(=O)(O)OC[C@H]3O[C@@H](n4cnc5c(N)ncnc54)[C@H](O)[C@@H]3O)c2cc1C` [FAD], for which the “HPLC of flavin released from purified enzyme by HClO4” value is on record as “FAD was identified as the flavin cofactor (Fig. 3A)”.
